Drawing on patent US20050009840A1 (SUGEN, INC., priority 2003, published 2005), this text covers Ki and inhibition for 58 compounds.

What is called Ki is a dissociation constant, usually derived from enzyme kinetics or from competition with a known ligand. In general, inhibition refers to the percentage by which the read-out fell short of the control.

T1 sequence (P08581 974-1390 limits assumed): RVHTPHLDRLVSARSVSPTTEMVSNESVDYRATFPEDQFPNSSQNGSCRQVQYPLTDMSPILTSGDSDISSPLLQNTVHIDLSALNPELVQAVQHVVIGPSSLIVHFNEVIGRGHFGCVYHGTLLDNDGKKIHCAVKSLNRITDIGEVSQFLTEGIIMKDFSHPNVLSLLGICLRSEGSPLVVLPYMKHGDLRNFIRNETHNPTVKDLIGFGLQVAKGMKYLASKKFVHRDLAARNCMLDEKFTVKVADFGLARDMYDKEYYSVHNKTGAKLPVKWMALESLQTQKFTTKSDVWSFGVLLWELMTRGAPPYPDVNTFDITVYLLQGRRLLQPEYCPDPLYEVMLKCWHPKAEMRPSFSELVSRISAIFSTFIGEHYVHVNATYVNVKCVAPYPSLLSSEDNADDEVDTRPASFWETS

The first assay concerns the target T1, HGFR (Homo sapiens, UniProt P08581).
T1 construct: purchased Upstate 14-526
The assay can be described thus: HGFR continuous-coupled spectrophotometric assay. In kind it is biochemical. To be noted: Table 3, column 'Ki (μM) or I (%)': cells without % sign; read-out: Ki.
As to `CC(Oc1cc(-c2ccc(C(=O)N3CCCNCC3)cc2)cnc1N)c1c(Cl)ccc(F)c1Cl` (stereo not shown) [Example I-604, (4-{6-Amino-5-[1-(2,6-dichloro-3-fluoro-phenyl)-ethoxy]-pyridin-3-yl}-phenyl)-[1,4]diazepan-1-yl-methanone], the Ki was found to be 0.031 µM. The same measure, in the same setting: then `CC(Oc1cc(-c2ccc3[nH]ccc3c2)cnc1N)c1c(Cl)ccc(F)c1Cl` (stereo not shown) [Example I-647, 3-[1-(2,6-Dichloro-3-fluoro-phenyl)-ethoxy]-5-(1H-indol-5-yl)-pyridin-2-ylamine], with 0.166 µM; and `CCN1CCN(C(=O)c2ccc(-c3cnc(N)c(OC(C)c4c(F)ccc(F)c4Cl)c3)cc2)CC1` (stereo not shown) [Example I-622, (4-{6-Amino-5-[1-(2-chloro-3,6-difluoro-phenyl)-ethoxy]-pyridin-3-yl}-phenyl)-(4-ethyl-piperazin-1-yl)-methanone], with 0.375 µM; and `CC(Oc1cc(-c2ccc(O)nc2)cnc1N)c1c(Cl)ccc(F)c1Cl` (stereo not shown) [Example I-643, 6′-Amino-5′-[1-(2,6-dichloro-3-fluoro-phenyl)-ethoxy]-1H-[3,3′]-bipyridinyl-6-one], with 0.0432 µM.

Staying with this assay, now noted: at 1 pM; Table 6, library procedure 41; read-out: % Inhibition (percent c-MET inhibition).
For the compound `Nc1ncc(C(=O)NCCOc2ccccc2)cc1OCc1c(Cl)cccc1Cl` [Example L-242], the inhibition at 1 pM is 66%.

On to `CN(C)C1CCN(C(=O)c2cnc(N)c(OCc3c(Cl)cccc3Cl)c2)C1` [Example L-244], for which the inhibition at 1 pM came out at 33%. Regarding `COCC1CN(CC(N)=O)CCN(C(=O)c2cnc(N)c(OCc3c(Cl)cccc3Cl)c2)C1` [Example L-331], the inhibition at 1 pM worked out at 23%.

Regarding `Nc1ncc(C(=O)N2CCC(COCc3ccccc3F)CC2)cc1OCc1c(Cl)cccc1Cl` [Example L-313], the inhibition at 1 pM stood at 10%. As for `CN(CCc1ccccn1)CC1(O)CCN(C(=O)c2cnc(N)c(OCc3c(Cl)cccc3Cl)c2)C1` [Example L-339], the inhibition at 1 pM stood at 18%. On the same count and under the same terms, next, `CN(CCS(C)(=O)=O)C(=O)c1cnc(N)c(OCc2c(Cl)cccc2Cl)c1` [Example L-297]: 26%. Turning to `Nc1ncc(C(=O)NCCN2CCOCC2)cc1OCc1c(Cl)cccc1Cl` [Example L-181], the inhibition at 1 pM was determined as 31%. As to `Cc1ccc(N2CCN(CCCCNC(=O)c3cnc(N)c(OCc4c(Cl)cccc4Cl)c3)CC2)cc1` [Example L-268], the inhibition at 1 pM is 15%. In the case of `Nc1ncc(C(=O)N2CCCC2c2ccncc2)cc1OCc1c(Cl)cccc1Cl` [Example L-290], the inhibition at 1 pM amounted to 19%.

Take `Nc1ncc(C(=O)NCc2ccc(C(F)(F)F)nc2)cc1OCc1c(Cl)cccc1Cl` [Example L-265]: the inhibition at 1 pM is 17%. In the case of `Nc1ncc(C(=O)N2CCC(Cc3cccc(CO)c3)CC2)cc1OCc1c(Cl)cccc1Cl` [Example L-316], the inhibition at 1 pM was determined as 11%.

As for `Nc1ncc(C(=O)NC[C@]2(O)CC[C@H](c3ccccc3)CC2)cc1OCc1c(Cl)cccc1Cl` [Example L-272], the inhibition at 1 pM is 15%. For the compound `COCCNC(=O)C1CCCN(C(=O)c2cnc(N)c(OCc3c(Cl)cccc3Cl)c2)C1` [Example L-288], the inhibition at 1 pM turned out to be 20%.

The same assay, now with this note: at 1 pM; Table 7, library procedure 42; read-out: % Inhibition (percent c-MET inhibition).
For the compound `Nc1ncc(-c2ccc(C(=O)N3CCC(N4CCCC4)CC3)cc2)cc1OCc1cccc(C(=O)NCc2ccncc2)c1`, the inhibition at 1 pM stood at 10%. `Cc1cc(C)cc(COc2cc(-c3ccc(C(=O)N4CCC(N5CCCC5)CC4)cc3)cnc2N)c1`: the inhibition at 1 pM is 14%. In the case of `Nc1ncc(-c2ccc(C(=O)N3CCC(N4CCCC4)CC3)cc2)cc1OCc1ccncc1`, the inhibition at 1 pM was 10%.

As to `Nc1ncc(-c2ccc(C(=O)N3CCC(N4CCCC4)CC3)cc2)cc1OCc1cccc(Oc2ccccc2)c1`, the inhibition at 1 pM came out at 34%.

Turning to `Cc1cc(C)nc(COc2cc(-c3ccc(C(=O)N4CCC(N5CCCC5)CC4)cc3)cnc2N)n1`, the inhibition at 1 pM was found to be 16%.

As to `Cc1oc(-c2ccc(F)cc2)nc1COc1cc(-c2ccc(C(=O)N3CCC(N4CCCC4)CC3)cc2)cnc1N`, the inhibition at 1 pM came to 17%. In the case of `Nc1ncc(-c2ccc(C(=O)N3CCC(N4CCCC4)CC3)cc2)cc1OCc1ccc(C(=O)NC2CCN(Cc3ccccc3)CC2)cc1`, the inhibition at 1 pM was determined as 11%. The same measure, in the same setting: next, `Nc1ncc(-c2ccc(C(=O)N3CCN(C4CCCC4)CC3)cc2)cc1OCc1cc(F)cc2c1OCOC2`: 21%; `Nc1ncc(-c2ccc(C(=O)N3CCC(N4CCCC4)CC3)cc2)cc1OCc1csc(-c2ccc(C(F)(F)F)cc2)n1`: 21%; `CCOC(=O)C1CCN(C(=O)c2ccc(COc3cc(-c4ccc(C(=O)N5CCC(N6CCCC6)CC5)cc4)cnc3N)cc2)CC1`: 16%.

Regarding `Nc1ncc(-c2ccc(C(=O)N3CCC(N4CCCC4)CC3)cc2)cc1OCc1ccccc1-c1ccccc1`, the inhibition at 1 pM was determined as 22%. In the case of `CC(Oc1cc(-c2ccc(C(=O)N3CCC(N4CCCC4)CC3)cc2)cnc1N)c1ccccc1` (stereo not shown), the inhibition at 1 pM was 10%. Turning to `Nc1ncc(-c2ccc(C(=O)N3CCC(N4CCCC4)CC3)cc2)cc1OCc1nc(-c2ccccn2)no1`, the inhibition at 1 pM is 9%. In the case of `COc1ccccc1-c1nc(COc2cc(-c3ccc(C(=O)N4CCC(N5CCCC5)CC4)cc3)cnc2N)c(C)o1`, the inhibition at 1 pM was 19%.

The same assay, now with this note: at 50 nM; Table 5, library procedure 40; read-out: % inhibition (percent c-MET inhibition).
As for `CC(Oc1cc(-c2ccc(C(=O)NCCc3c[nH]c4ccc(O)cc34)cc2)cnc1N)c1c(Cl)ccc(F)c1Cl` [Example L-69], the inhibition at 0.05 µM came to 66%. In the case of `C[C@H](Oc1cc(-c2ccc(C(=O)NC[C@@H](C)O)cc2)cnc1N)c1c(Cl)ccc(F)c1Cl` [Example L-101], the inhibition at 0.05 µM was 79%. The same measure, in the same setting: then `CC(Oc1cc(-c2ccc(C(=O)N3CCNC(=O)C3)cc2)cnc1N)c1c(Cl)ccc(F)c1Cl` [Example L-168], with 90%; and `CC(Oc1cc(-c2ccc(C(=O)NC[C@@H]3CCCO3)cc2)cnc1N)c1c(Cl)ccc(F)c1Cl` (stereo partly drawn) [Example L-96], with 61%; and `C[C@H](Oc1cc(-c2ccc(C(=O)NC[C@@H]3CCCC[C@H]3O)cc2)cnc1N)c1c(Cl)ccc(F)c1Cl` [Example L-84], with 67%. Regarding `CC(Oc1cc(-c2ccc(C(=O)N(C)C3CCN(C)C3)cc2)cnc1N)c1c(Cl)ccc(F)c1Cl` [Example L-71], the inhibition at 0.05 µM was 92%. In the case of `CC(Oc1cc(-c2ccc(C(=O)NCC(c3cccnc3)N(C)C)cc2)cnc1N)c1c(Cl)ccc(F)c1Cl` [Example L-159], the inhibition at 0.05 µM amounted to 78%.

On to `CC(Oc1cc(-c2ccc(C(=O)NCC(F)(F)F)cc2)cnc1N)c1c(Cl)ccc(F)c1Cl` [Example L-58], for which the inhibition at 0.05 µM stood at 78%. Consider `CC(Oc1cc(-c2ccc(C(=O)NCC3CC3)cc2)cnc1N)c1c(Cl)ccc(F)c1Cl` [Example L-122], for which the inhibition at 0.05 µM was 61%. For the compound `CC(Oc1cc(-c2ccc(C(=O)NCCCN(C)C)cc2)cnc1N)c1c(Cl)ccc(F)c1Cl` [Example L-16], the inhibition at 0.05 µM amounted to 83%. Consider `CC(Oc1cc(-c2ccc(C(=O)N3CCC(Cc4ccccc4)CC3)cc2)cnc1N)c1c(Cl)ccc(F)c1Cl` [Example L-40], for which the inhibition at 0.05 µM amounted to 55%.

For the compound `CC(Oc1cc(-c2ccc(C(=O)N3CCN(CC(=O)N4CCCC4)CC3)cc2)cnc1N)c1c(Cl)ccc(F)c1Cl` [Example L-46], the inhibition at 0.05 µM turned out to be 78%. As to `CC(Oc1cc(-c2ccc(C(=O)N3CCN(C(C)C)CC3)cc2)cnc1N)c1c(Cl)ccc(F)c1Cl` [Example L-134], the inhibition at 0.05 µM came to 76%. The same measure, in the same setting: next, `C#CCCN1CCN(C(=O)c2ccc(-c3cnc(N)c(OC(C)c4c(Cl)ccc(F)c4Cl)c3)cc2)CC1` [Example L-157]: 77%; `CCN(CC)CCN(C)C(=O)c1ccc(-c2cnc(N)c(OC(C)c3c(Cl)ccc(F)c3Cl)c2)cc1` [Example L-43]: 85%; `CC(Oc1cc(-c2ccc(C(=O)NCC3CCOCC3)cc2)cnc1N)c1c(Cl)ccc(F)c1Cl` [Example L-173]: 63%. Consider `CC(Oc1cc(-c2ccc(C(=O)NCCN(C)C)cc2)cnc1N)c1c(Cl)ccc(F)c1Cl` [Example L-64], for which the inhibition at 0.05 µM came to 85%. For the compound `CC(Oc1cc(-c2ccc(C(=O)N3CCC(C(=O)c4ccccc4)CC3)cc2)cnc1N)c1c(Cl)ccc(F)c1Cl` [Example L-136], the inhibition at 0.05 µM turned out to be 61%. On the same count and under the same terms, then `COCCCNC(=O)c1ccc(-c2cnc(N)c(OC(C)c3c(Cl)ccc(F)c3Cl)c2)cc1` [Example L-54], with 95%.

Still in this assay, the particulars now being: at 1 μM; Table 8, library procedure 43; read-out: % Inhibition (percent c-MET inhibition).
With `CC1CN(C(=O)c2ccc(-c3cnc(N)c(OCc4nccn4C)c3)cc2)CC(C)N1` (stereo not shown), the inhibition at 1 µM stood at 12%. On to `Cc1cccc(COc2cc(-c3ccc(C(=O)N4CC(C)NC(C)C4)cc3)cnc2N)c1F` (stereo not shown), for which the inhibition at 1 µM was 28%. As for `CC1CN(C(=O)c2ccc(-c3cnc(N)c(OCc4cc5c(C(F)(F)F)nn(C)c5s4)c3)cc2)CC(C)N1` (stereo not shown), the inhibition at 1 µM stood at 13%. `COc1ccccc1-c1nc(COc2cc(-c3ccc(C(=O)N4CC(C)NC(C)C4)cc3)cnc2N)no1` (stereo not shown): the inhibition at 1 µM came out at 9%. In the case of `CC1CN(C(=O)c2ccc(-c3cnc(N)c(OCc4ncc(C(F)(F)F)cc4Cl)c3)cc2)CC(C)N1` (stereo not shown), the inhibition at 1 µM is 17%.

The same assay, now with this note: cells prefixed Ki; read-out: Met Ki.
Regarding `CC(Oc1cc(-c2ccc(OCC(=O)N3CC[C@@H](O)C3)cc2)cnc1N)c1c(Cl)ccc(F)c1Cl` (stereo partly drawn) [Example I-478, 2-(4-{6-Amino-5-[1-(2,6-dichloro-3-fluoro-phenyl)-ethoxy]-pyridin-3-yl}-phenoxy)-1-((R)-3-hydroxy-pyrrolidin-1-yl)-ethanone], the Ki worked out at 0.041 µM. For the compound `CC(Oc1cc(C#CC(C)(C)NC(=O)NCCN2CCOCC2)cnc1N)c1c(Cl)ccc(F)c1Cl` (stereo not shown) [Example I-436, 1-(3-{6-Amino-5-[1-(2,6-dicloro-3-fluoro-phenyl)-ethoxy]-pyridin-3-yl}-1,1-dimethyl-prop-2-ynyl)-3-(2-morpholin-4-yl-ethyl)-urea], the Ki is 1.11 µM.

`CC(Oc1cc(C#CC(C)(C)N)ccc1N)c1c(Cl)ccc(F)c1Cl` (stereo not shown) [Example I-441, 4-(3-Amino-3-methyl-but-1-ynyl)-2-[1-(2,6-dichloro-3-fluoro-phenyl)-ethoxy]-phenylamine]: the Ki was 1.06 µM.
